Consider ten compounds from patent US8450315B2, “Phosphoinositide 3-kinase inhibitor compounds and methods of use” (Genentech, Inc., priority 2006, dated 2013).

Series [1] concerns the target human PI3K isoform gamma (p110 gamma) (Homo sapiens, UniProt P48736). Briefly: p110 isoform selectivity scintillation proximity assay (SPA), gamma isoform. Format: biochemical. The note with it: fold potency over gamma relative to alpha, calculated from IC50 values (SPA). Here is the method:
(§1) Binding of Formula Ia and Ib compounds from Tables 1a and 1b to purified preparations of p110 isoforms alpha, beta, delta, and gamma was measured by a Scintillation Proximity Assay (SPA) to determine binding activity (IC50 μMol) and selectivity of binding of beta, delta, and gamma isoforms relative to alpha (Example 365). These values are expressed in Table 2.
(§2) The ability of Formula Ia and Ib compounds from Tables 1a and 1b to inhibit the lipid kinase activity of purified preparations of human PI3K isoforms alpha, beta, delta, and gamma was determined by a radiometric scintillation proximity assay (SPA, GE Healthcare, Amersham Biosciences). Concentration dependent inhibition at 50% (IC50 μMol) was determined for all four isoforms […] and fold potency over beta, delta, and gamma relative to alpha was calculated for a selection of compounds in Table 2. Each compound has a p110 alpha IC50<1 μMol.

The target in series [2] is human PI3K isoform delta (p110 delta) (Homo sapiens, UniProt O00329). Kind of series: p110 isoform selectivity scintillation proximity assay (SPA), delta isoform. The note with it: fold potency over delta relative to alpha, calculated from IC50 values (SPA). Format: biochemical. Here is the method: as §1, §2
Sequence of human PI3K isoform delta (p110 delta) (O00329 whole entry, canonical isoform): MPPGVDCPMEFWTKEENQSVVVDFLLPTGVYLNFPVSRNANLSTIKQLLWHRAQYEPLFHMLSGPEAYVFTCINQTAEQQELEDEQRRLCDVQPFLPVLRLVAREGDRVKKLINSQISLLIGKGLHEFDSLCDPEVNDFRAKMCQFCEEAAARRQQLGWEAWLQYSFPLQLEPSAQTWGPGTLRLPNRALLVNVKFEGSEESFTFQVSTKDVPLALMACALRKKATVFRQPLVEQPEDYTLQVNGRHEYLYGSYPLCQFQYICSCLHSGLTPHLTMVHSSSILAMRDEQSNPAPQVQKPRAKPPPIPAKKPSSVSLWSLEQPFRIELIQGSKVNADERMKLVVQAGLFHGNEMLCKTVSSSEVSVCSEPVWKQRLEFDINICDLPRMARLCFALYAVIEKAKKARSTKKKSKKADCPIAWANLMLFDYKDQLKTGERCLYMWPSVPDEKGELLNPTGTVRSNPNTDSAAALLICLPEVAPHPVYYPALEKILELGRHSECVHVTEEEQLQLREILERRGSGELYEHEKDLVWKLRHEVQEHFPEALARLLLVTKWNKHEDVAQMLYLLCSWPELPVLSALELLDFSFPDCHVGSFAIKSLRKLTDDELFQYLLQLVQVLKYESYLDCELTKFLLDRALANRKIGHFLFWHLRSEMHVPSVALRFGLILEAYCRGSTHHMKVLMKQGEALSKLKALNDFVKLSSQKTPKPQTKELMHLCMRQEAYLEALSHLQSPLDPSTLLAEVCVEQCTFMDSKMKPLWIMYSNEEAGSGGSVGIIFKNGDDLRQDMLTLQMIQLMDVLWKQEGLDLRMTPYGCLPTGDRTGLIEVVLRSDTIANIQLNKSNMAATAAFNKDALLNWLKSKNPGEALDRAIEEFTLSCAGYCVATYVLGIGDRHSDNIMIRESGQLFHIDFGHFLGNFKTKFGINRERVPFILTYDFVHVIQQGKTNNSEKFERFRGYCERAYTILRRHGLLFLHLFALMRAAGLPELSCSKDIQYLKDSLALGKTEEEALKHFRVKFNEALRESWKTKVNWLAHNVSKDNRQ
Sequence of human PI3K isoform delta (p110 delta) (P27986 whole entry partner, canonical isoform): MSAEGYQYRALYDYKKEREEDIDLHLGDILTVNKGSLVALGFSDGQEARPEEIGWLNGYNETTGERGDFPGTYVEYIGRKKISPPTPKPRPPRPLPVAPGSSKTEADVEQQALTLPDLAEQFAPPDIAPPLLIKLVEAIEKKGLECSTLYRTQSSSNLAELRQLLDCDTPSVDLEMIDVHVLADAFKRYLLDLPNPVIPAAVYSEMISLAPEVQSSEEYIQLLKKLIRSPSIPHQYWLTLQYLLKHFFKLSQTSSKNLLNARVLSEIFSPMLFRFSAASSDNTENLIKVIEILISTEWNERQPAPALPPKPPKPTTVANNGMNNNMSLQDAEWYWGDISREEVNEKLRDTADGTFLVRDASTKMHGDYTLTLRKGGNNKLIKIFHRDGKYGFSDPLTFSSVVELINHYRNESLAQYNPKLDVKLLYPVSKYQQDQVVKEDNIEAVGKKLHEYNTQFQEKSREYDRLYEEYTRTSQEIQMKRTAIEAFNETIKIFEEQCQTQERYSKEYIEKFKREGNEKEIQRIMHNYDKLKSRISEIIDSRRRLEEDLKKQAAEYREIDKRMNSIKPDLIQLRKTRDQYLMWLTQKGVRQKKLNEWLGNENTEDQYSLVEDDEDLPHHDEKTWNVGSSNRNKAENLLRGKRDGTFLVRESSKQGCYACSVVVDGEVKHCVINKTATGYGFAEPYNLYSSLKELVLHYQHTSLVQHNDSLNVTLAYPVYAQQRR
For series [3], the target named is human PI3K isoform beta (p110 beta) (Homo sapiens, UniProt P42338). Kind of series: p110 isoform selectivity scintillation proximity assay (SPA), beta isoform. The note with it: fold potency over beta relative to alpha, calculated from IC50 values (SPA). It is filed as biochemical. On the procedure:
as §1, §2

For series [4] the following is noted: cited from earlier work.
The conditions of series [5]: cited from earlier work. The source holds these as a separate data set.

Each structure is given as a SMILES string.

Sequence of human PI3K isoform beta (p110 beta) (P42338 whole entry, canonical isoform): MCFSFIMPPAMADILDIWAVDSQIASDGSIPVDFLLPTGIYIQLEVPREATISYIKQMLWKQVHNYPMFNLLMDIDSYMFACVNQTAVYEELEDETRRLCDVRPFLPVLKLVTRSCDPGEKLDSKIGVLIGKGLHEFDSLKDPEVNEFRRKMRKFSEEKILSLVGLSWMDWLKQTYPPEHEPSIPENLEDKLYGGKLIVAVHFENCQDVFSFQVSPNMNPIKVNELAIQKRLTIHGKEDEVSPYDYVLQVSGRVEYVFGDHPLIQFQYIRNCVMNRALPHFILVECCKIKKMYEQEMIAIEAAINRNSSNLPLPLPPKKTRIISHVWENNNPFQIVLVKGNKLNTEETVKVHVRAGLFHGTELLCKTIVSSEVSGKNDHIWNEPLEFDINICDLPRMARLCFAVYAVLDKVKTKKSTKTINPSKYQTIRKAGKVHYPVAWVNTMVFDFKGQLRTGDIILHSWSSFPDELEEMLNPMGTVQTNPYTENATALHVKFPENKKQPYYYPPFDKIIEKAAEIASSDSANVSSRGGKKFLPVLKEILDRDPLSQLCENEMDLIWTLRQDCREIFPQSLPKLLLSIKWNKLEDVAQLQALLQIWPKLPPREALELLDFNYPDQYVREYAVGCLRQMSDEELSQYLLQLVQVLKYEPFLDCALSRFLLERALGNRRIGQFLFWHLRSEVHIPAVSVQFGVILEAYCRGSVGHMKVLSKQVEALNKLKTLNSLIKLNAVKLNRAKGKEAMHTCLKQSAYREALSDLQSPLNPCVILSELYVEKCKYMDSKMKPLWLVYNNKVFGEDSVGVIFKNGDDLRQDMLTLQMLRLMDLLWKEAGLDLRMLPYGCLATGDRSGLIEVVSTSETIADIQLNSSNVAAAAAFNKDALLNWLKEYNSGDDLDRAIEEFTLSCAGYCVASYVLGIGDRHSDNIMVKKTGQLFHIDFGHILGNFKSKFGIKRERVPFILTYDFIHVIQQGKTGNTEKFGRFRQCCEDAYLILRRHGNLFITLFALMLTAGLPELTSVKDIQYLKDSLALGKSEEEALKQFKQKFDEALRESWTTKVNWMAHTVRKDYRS
Sequence of human PI3K isoform beta (p110 beta) (P27986 whole entry partner, canonical isoform): as the sequence (P27986 whole entry partner, canonical isoform) above
Sequence of human PI3K isoform gamma (p110 gamma) (P48736 whole entry, canonical isoform): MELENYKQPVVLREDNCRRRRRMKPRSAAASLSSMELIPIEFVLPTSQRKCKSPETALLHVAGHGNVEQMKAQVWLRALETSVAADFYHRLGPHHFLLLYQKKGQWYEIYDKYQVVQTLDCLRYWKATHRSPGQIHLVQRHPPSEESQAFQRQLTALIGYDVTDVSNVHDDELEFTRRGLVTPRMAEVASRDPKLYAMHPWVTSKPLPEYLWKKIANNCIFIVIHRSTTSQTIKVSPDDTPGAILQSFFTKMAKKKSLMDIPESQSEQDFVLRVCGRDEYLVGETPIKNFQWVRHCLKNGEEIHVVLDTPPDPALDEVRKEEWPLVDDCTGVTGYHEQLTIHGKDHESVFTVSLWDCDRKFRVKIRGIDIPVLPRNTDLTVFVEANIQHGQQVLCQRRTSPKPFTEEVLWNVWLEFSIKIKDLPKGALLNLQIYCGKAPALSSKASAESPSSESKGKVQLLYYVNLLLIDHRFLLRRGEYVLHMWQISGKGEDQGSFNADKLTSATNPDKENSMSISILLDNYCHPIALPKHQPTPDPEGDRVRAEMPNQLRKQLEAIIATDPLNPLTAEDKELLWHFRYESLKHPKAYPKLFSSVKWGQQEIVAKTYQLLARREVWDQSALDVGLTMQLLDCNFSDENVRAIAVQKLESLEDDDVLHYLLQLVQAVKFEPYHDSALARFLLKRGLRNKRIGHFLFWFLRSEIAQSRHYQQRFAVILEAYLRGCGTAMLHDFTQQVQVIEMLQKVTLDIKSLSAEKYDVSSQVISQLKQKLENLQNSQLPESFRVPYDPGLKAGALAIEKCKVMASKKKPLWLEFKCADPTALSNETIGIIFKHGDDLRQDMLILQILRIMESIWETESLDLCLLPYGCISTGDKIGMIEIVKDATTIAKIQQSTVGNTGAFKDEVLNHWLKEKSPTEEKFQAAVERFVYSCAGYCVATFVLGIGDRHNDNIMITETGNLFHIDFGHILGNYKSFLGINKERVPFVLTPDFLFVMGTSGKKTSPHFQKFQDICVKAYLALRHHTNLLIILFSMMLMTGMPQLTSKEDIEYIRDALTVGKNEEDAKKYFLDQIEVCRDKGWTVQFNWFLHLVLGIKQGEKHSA

Take `COc1ccc(NCc2cc3nc(-c4cccc5[nH]ncc45)nc(N4CCOCC4)c3s2)cn1` [Compound 368, N-((2-(1H-indazol-4-yl)-4-morpholinothieno[3,2-d]pyrimidin-6-yl)methyl)-6-methoxypyridin-3-amine]: the alpha/gamma in series [1] was more than 10. In addition, the alpha/delta in series [2] is less than 10. In series [3], the alpha/beta is listed as less than 10.

Regarding `CC(C)(NC(=O)c1ccccc1)c1cc2nc(-c3cccc4[nH]ncc34)nc(N3CCOCC3)c2s1` [Compound 388, N-(2-(2-(1H-indazol-4-yl)-4-morpholinothieno[3,2-d]pyrimidin-6-yl)propan-2-yl)benzamide], in series [1], the alpha/gamma is more than 10. Besides, in series [2], the alpha/delta is on record as less than 10. Moreover, the alpha/beta in series [3] was more than 10.

As to `CN(Cc1cc2nc(-c3cccc4[nH]ncc34)nc(N3CCOCC3)c2s1)C(=O)c1ccccc1` [Compound 390, N-((2-(1H-indazol-4-yl)-4-morpholinothieno[3,2-d]pyrimidin-6-yl)methyl)-N-methylbenzamide], the alpha/gamma in series [1] is less than 10. In series [2], the alpha/delta is less than 10. Besides, the alpha/beta in series [3] is reported as less than 10.

Take `Cc1c(-c2cccc(S(C)(=O)=O)c2)sc2c(N3CCOCC3)nc(-c3cnc4[nH]ccc4c3)nc12` [Compound 395, 7-methyl-6-(3-(methylsulfonyl)phenyl)-4-morpholino-2-(1H-pyrrolo[2,3-b]pyridin-5-yl)thieno[3,2-d]pyrimidine]: the alpha/gamma in series [1] is listed as more than 10. Moreover, in series [2], the alpha/delta is given as more than 10. The alpha/beta in series [3] was more than 10.

As to `CN(Cc1cc2c(N3CCOCC3)nc(-c3cnc4[nH]ccc4c3)nc2s1)S(C)(=O)=O` [Compound 417, N-methyl, N-methylsulfonyl(4-morpholino-2-(1H-pyrrolo[2,3-b]pyridin-5-yl)thieno[2,3-d]pyrimidin-6-yl)methanamine], in series [1], the alpha/gamma is listed as more than 10. For the same compound, the alpha/delta in series [2] was more than 10. Also, in series [3], the alpha/beta was more than 10.

As to `CS(=O)(=O)c1cccc(-c2cc3nc(-c4cnc5[nH]ccc5c4)nc(N4CCOCC4)c3s2)c1` [Compound 418, 6-(3-(methylsulfonyl)phenyl)-4-morpholino-2-(1H-pyrrolo[2,3-b]pyridin-5-yl)thieno[3,2-d]pyrimidine], in series [1], the alpha/gamma was more than 10. Moreover, the alpha/delta in series [2] is 10. For the same compound, the alpha/beta in series [3] is listed as more than 10.

As for `CC(C)(O)c1cc2nc(-c3cnc4[nH]ccc4c3)nc(N3CCOCC3)c2s1` [Compound 422, 2-(4-morpholino-2-(1H-pyrrolo[2,3-b]pyridin-5-yl)thieno[3,2-d]pyrimidin-6-yl)-propan-2-ol], the alpha/gamma in series [1] was more than 10. The alpha/delta in series [2] was less than 10. Further, the alpha/beta in series [3] is listed as more than 10.

With `c1cc2cc(-c3nc(N4CCOCC4)c4sc(-c5ccc(N6CCOCC6)nc5)cc4n3)cnc2[nH]1` [Compound 428, 4-morpholino-6-(6-morpholinopyridin-3-yl)-2-(1H-pyrrolo[2,3-b]pyridin-5-yl)thieno[3,2-d]pyrimidine], in series [1], the alpha/gamma was more than 10. Besides, in series [2], the alpha/delta is more than 10. The alpha/beta in series [3] was more than 10.

In the case of `Nc1nc(-c2cc3nc(-c4cnc5[nH]ccc5c4)nc(N4CCOCC4)c3s2)cs1` [Compound 429, 4-(4-morpholino-2-(1H-pyrrolo[2,3-b]pyridin-5-yl)thieno[3,2-d]pyrimidin-6-yl)thiazol-2-amine], the alpha/gamma in series [1] was more than 10. In series [2], the alpha/delta is on record as more than 10. For the same compound, the alpha/beta in series [3] was more than 10.

Consider `O=c1cc(N2CCOCC2)oc2c(-c3ccccc3)cccc12` [LY294002, 2-(4-morpholinyl)-8-phenyl-4H-1-benzopyran-4-one], for which the metabolism in animals entry in series [4] (animals) was “rapidly metabolized in animals”. For the same compound, in series [4] (in vivo), the pharmacokinetics entry is recorded as “poor pharmacokinetics”. Further, the aqueous solubility result in series [5] was “lack of aqueous solubility”.
